In PMC3925890 (Advanced healthcare materials, 2012):

Key:
VEGF [1] = target: T1, VEGF (Homo sapiens, UniProt P15692); assay type: binding; conditions: Fig. 1b; varying concentrations of VEGF; microspheres containing lysine modified dimers
T1 sequence (P15692 1-191 isoform P15692-4): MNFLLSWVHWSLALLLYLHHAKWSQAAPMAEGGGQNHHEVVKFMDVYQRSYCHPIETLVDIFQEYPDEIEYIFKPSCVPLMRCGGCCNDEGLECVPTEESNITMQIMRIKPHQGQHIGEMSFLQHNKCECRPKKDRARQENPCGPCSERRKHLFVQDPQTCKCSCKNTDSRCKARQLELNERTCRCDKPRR

VEGF [2] = target: T1, VEGF; test: Release of VEGF from functionalized microspheres; conditions: for bound VEGF released in 24 hours: microspheres incubated in a medium containing 10% FBS; for VEGF release relative to monomer microspheres (in words) / duration of sustained VEGF release: microspheres pre-incubated in 40 ng/ml VEGF solution (Fig. 3a)
[3] = system: uterine artery endothelial cells (UAECs); conditions: 10 ng/ml VEGF-165; compared with VEGF-free condition

Substance	VEGF binding efficiency over a range of VEGF concentrations (in words) (VEGF [1])	bound VEGF released in 24 hours (VEGF [2])	VEGF release relative to monomer microspheres (in words) (VEGF [2])	duration of sustained VEGF release (VEGF [2])	percent of responding UAECs (in words) [3]
(EFdAdYdLdIDFNWEYPAS)2KKKC [dimerb]	consistently showed a higher VEGF binding efficiency than dimera	72 ± 2%	released significantly more VEGF and over a longer period of time relative to microspheres containing the monomer version	over 30 days	
(EFdAdYdLdIDFNWEYPASK)2KC [dimera]		48 ± 5%	released significantly more VEGF and over a longer period of time relative to microspheres containing the monomer version	over 30 days	reduced to the same level as the VEGF-free condition
